*1 amine or outer side, *2 acyl side, *3 side chain or, on linkers, in order; H or OH if unused. Where a SMILES comes first, the peptide text is derived from it. Bridges are numbered along the chain shown (N, C = ends). [ ]: non-standard residue; d: D form. 2Nal = N[C@@H](Cc1ccc2ccccc2c1)C(=O)O; AEF = NCCOc1ccc(C[C@H](N)C(=O)O)cc1; X1 = O=C(Cc1ccc(CN[*:1])cc1)[*:2]; 3Pal = N[C@@H](Cc1cccnc1)C(=O)O; Cit = NC(=O)NCCC[C@H](N)C(=O)O; αMeL = CC(C)C[C@](C)(N)C(=O)O; Orn = NCCC[C@H](N)C(=O)O; Dab = NCC[C@H](N)C(=O)O

Data set [1] has as its target T1, human IL-23R (Homo sapiens, UniProt Q5VWK5).
T1 sequence (Q5VWK5 22-629): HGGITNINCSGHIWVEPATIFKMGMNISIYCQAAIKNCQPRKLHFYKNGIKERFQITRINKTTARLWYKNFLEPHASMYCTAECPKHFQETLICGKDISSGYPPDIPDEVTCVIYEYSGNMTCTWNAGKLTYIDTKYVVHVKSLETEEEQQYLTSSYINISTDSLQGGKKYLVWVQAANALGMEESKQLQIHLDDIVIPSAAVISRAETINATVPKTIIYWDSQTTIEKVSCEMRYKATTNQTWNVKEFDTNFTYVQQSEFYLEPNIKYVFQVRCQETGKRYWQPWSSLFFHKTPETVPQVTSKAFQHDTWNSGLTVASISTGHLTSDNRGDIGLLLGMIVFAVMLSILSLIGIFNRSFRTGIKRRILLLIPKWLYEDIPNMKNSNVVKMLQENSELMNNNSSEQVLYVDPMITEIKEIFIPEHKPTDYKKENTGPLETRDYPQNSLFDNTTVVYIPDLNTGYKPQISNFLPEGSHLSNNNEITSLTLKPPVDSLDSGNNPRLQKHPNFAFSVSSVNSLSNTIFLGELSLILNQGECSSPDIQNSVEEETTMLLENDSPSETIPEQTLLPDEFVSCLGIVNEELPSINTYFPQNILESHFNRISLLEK
Briefly: biochemical. Conditions: for Emax: read-out: % displacement (hIL-23R binding). The text has this: The compound binding affinity for IL-23R was estimated by the ability of compounds to displace a fluorophore-labelled reference compound from the human IL-23R. The assay principle relies on Bioluminescence Resonance Energy Transfer (BRET) between a fluorophore-labelled reference compound binding to the IL-23R part of a fusion protein consisting of the IL-23R fused to a Nanoluc luciferase enzyme (Nanoluc). The Nanoluc is placed in the N-terminus in close proximity to the binding domain of the ligand. Upon close proximity between the fluorophore of the fluorophore-labelled compound and the Nanoluc of the fusion protein, bioluminescence energy generated from conversion of a Nanoluc substrate, is transferred to the fluorophore resulting in an increase in BRET. In presence of an unlabelled compound, the unlabelled compound displaces the fluorophore-labelled peptide from its binding site resulting in a decrease in BRET. The concentration for which half of the fluorophore-labelled peptide is displaced by the unlabelled compound depends on the affinity of the compound for the IL-23R, and is termed the IC50 concentration.
The plasmid also contained a gene to confer resistance for the antibiotic hygromycin. A cell line stably expressing the Nluc-IL23R fusion protein was generated by transfection of HEK293 cells with the expression plasmid and selected with hygromycin for 3 weeks in Growth medium consisting of DMEM w/ Glutamax-I containing, 10% V/V FBS, 1% V/V P/S, 1 mM Sodium Pyruvate, and 1X NEAA, and 0.3 mg/mL hygromycin. The remaining cells were propagated and considered a stable expressing Nluc-IL23R fusion protein pool clone.
Cells expressing the Nluc-IL23R fusion protein were expanded in Growth medium and membranes prepared by homogenization of a cell pellet from 18 T175 flasks (4 °C in subsequent steps). The cell pellet was lysed Tris 10 mM, 7.5, 1 mM EDTA and protease inhibitors (Complete, Roche) and homogenized using a 15 mL glass-dounce by 50 strokes. The homogenate was spun at spin @1500 rpm for 10 min, the supernatant transferred to SV-34 tubes and spun at 40000g for 20 min at 4 °C to pellet the crude membranes. The supernatant was then removed, the pellet resuspended in 5 mL buffer containing 50 mM HEPES pH 7.4, 5 mM EGTA, and 5 mM MgCl2, and homogenized. Aliquots of the resuspended and homogenized membranes containing the Nluc-IL23R fusion protein were stored at -80 °C until use.
The plate was sealed with light impermeable plate seals, and incubated on an orbital shaker 400 rpm for 2 hours at room temperature. To determine the BRET ratio, the plate seal was removed and 25 µL of the Nanoluc substrate (Promega N1572) diluted 1:500 was added to each well and incubated for 1-2 minutes on an orbital shaker at 400 rpm. […] The BRET ratio was calculated as the fluorescence from the TAMRA/nanoluc bioluminescence.
Compound potency (IC50) and maximal displacement (% displacement) were estimated by computer-aided curve fitting using a 4-parameter logistic (4PL) non-linear model. […]
In this application, the inventors provide the data as IC50 values.

A short description of data set [2]: Peptide stability in simulated intestinal fluid (SIF). The class given is in vitro ADME. The following applies: 37 °C, pH 6.8, porcine pancreatin 10 g/L, 10 µM; for remaining at 1 h, 10 µM / remaining at 4 h, 10 µM: pig, simulated intestinal fluid (SIF) with porcine pancreatin; for remaining at 4 h, 10 µM: read-out: SIF (% remaining 4 h). The protocol: SGF was prepared by dissolving sodium chloride (0.2 g) in 50 mL of water. A volume of 0.7 mL of 10 M HCl was added to adjust the pH of the solution to 1.2 and the volume made up to 100 mL with water. […] SIF was prepared by dissolving monobasic potassium phosphate (0.68 g) in 50 mL of water and adjusting the pH to 6.8 with 1 M NaOH. The volume was subsequently made up to 100 mL with water. 200 mg porcine pancreatin (P1625, Sigma Aldrich) was gently dissolved into 20 mL preheated (37 °C) solution (10 g/L) immediately prior to the incubation.
The incubation was performed at 37 °C with gentle shaking. […] After the last timepoint, the sampling plate was mixed for 10 min on a shaking table and centrifuged 10 min at 2200 g. 70 µL resulting supernatant was diluted with 150 µL water, mixed and centrifugated before analysis by liquid chromatography high resolution mass spectrometry. […] Percent remaining at each timepoint was calculated relative to timepoint zero based on absolute peak areas.
Compounds with a SIF stability (after 4 h) above 70% are considered highly SIF stable.

Turning to `CNC(=O)[C@H](Cc1cccnc1)NC(=O)[C@H](CCN)NC(=O)[C@@H]1CCC(=O)NCc2ccc(cc2)CC(=O)N[C@@H](Cc2ccccc2)C(=O)N[C@H]2CCC(=O)NCC[C@H](NC(=O)[C@H](CCC(N)=O)NC(=O)[C@H](Cc3c[nH]c4ccccc34)NC2=O)C(=O)N[C@@H](Cc2ccc(OCCN)cc2)C(=O)N[C@@H](Cc2ccc3ccccc3c2)C(=O)N[C@@](C)(CC(C)C)C(=O)N1` [Compound 21, [4-Aminomethyl-phenylacetyl](1c)*FE(2c)WQ[Dab](2c)[Y(2-aminoethoxy)][2-Nal][2-Me-Leu]E(1c)[Dab][3-(3-Pyridyl)-Ala]-[NHMe]] ([X1]FEWQ[Dab][AEF][2Nal][αMeL]E[Dab][3Pal]-NHMe; lactam 3-6, N-10), in data set [1], the IC50 – broadly, the midpoint of a concentration-inhibition curve – is 0.014 nM and the Emax is 95%. In addition, the amount remaining at 1 h, 10 µM in data set [2] was 53%.
With `CNC(=O)[C@H](Cc1cccnc1)NC(=O)[C@H](CCN)NC(=O)[C@@H]1CCC(=O)NCc2ccc(cc2)CC(=O)N[C@@H](CO)C(=O)N[C@H]2CCC(=O)NCC[C@H](NC(=O)[C@H](CCCN)NC(=O)[C@H](Cc3c[nH]c4ccccc34)NC2=O)C(=O)N[C@@H](Cc2ccc(OCCN)cc2)C(=O)N[C@@H](Cc2ccc3ccccc3c2)C(=O)N[C@@](C)(CC(C)C)C(=O)N1` [Compound 28, [4-Aminomethyl-phenylacetyl](1c)*SE(2c)W[Orn][Dab](2c)[Y(2-aminoethoxy)][2-Nal][2-Me-Leu]E(1c)[Dab][3-(3-Pyridyl)-Ala]-[NHMe]] ([X1]SEW[Orn][Dab][AEF][2Nal][αMeL]E[Dab][3Pal]-NHMe; lactam 3-6, N-10), the “% displacement (hIL-23R binding)” value in data set [1] turned out to be 97%. For the same compound, in data set [2], the amount remaining at 4 h, 10 µM is 110%.
As to `CNC(=O)[C@H](Cc1cccnc1)NC(=O)[C@H](CCN)NC(=O)[C@@H]1CCC(=O)NCc2ccc(cc2)CC(=O)N[C@@H](CO)C(=O)N[C@H]2CCC(=O)NCC[C@H](NC(=O)[C@H](CCC(=O)N(C)C)NC(=O)[C@H](Cc3c[nH]c4ccccc34)NC2=O)C(=O)N[C@@H](Cc2ccc(OCCN)cc2)C(=O)N[C@@H](Cc2ccc3ccccc3c2)C(=O)N[C@@](C)(CC(C)C)C(=O)N1` [Compound 30, [4-Aminomethyl-phenylacetyl](1c)*SE(2c)W[Q(2Me)][Dab](2c)[Y(2-aminoethoxy)][2-Nal][2-Me-Leu]E(1c)[Dab][3-(3-Pyridyl)-Ala]-[NHMe]] ([X1]SEWE(NMe2)[Dab][AEF][2Nal][αMeL]E[Dab][3Pal]-NHMe; lactam 3-6, N-10), in data set [1], the “% displacement (hIL-23R binding)” value is on record as 104% and the IC50 came to 0.018 nM. Also, the share remaining at 4 h, 10 µM in data set [2] was 94%.
As to `CNC(=O)CC[C@@H]1NC(=O)[C@H](Cc2c[nH]c3ccccc23)NC(=O)[C@@H]2CCC(=O)NCC[C@H](NC1=O)C(=O)N[C@@H](Cc1ccc(OCCN)cc1)C(=O)N[C@@H](Cc1ccc3ccccc3c1)C(=O)N[C@@](C)(CC(C)C)C(=O)N[C@H](C(=O)N[C@@H](CCN)C(=O)N[C@@H](Cc1cccnc1)C(=O)NC)CCC(=O)NCc1ccc(cc1)CC(=O)N[C@@H](CO)C(=O)N2` [Compound 29, [4-Aminomethyl-phenylacetyl](1c)*SE(2c)W[Q(Me)][Dab](2c)[Y(2-aminoethoxy)][2-Nal][2-Me-Leu]E(1c)[Dab][3-(3-Pyridyl)-Ala]-[NHMe]] ([X1]SEWE(NHMe)[Dab][AEF][2Nal][αMeL]E[Dab][3Pal]-NHMe; lactam 3-6, N-10), in data set [1], the “% displacement (hIL-23R binding)” value was 96%. Moreover, the amount remaining at 4 h, 10 µM in data set [2] is 92%.
On to `CNC(=O)[C@H](Cc1cccnc1)NC(=O)[C@H](CCN)NC(=O)[C@@H]1CCC(=O)NCc2ccc(cc2)CC(=O)N[C@@H](CO)C(=O)N[C@H]2CCC(=O)NCC[C@H](NC(=O)[C@H](CCCNC(N)=O)NC(=O)[C@H](Cc3c[nH]c4ccccc34)NC2=O)C(=O)N[C@@H](Cc2ccc(OCCN)cc2)C(=O)N[C@@H](Cc2ccc3ccccc3c2)C(=O)N[C@@](C)(CC(C)C)C(=O)N1` [Compound 26, [4-Aminomethyl-phenylacetyl](1c)*SE(2c)W[Cit][Dab](2c)[Y(2-aminoethoxy)][2-Nal][2-Me-Leu]E(1c)[Dab][3-(3-Pyridyl)-Ala]-[NHMe]] ([X1]SEW[Cit][Dab][AEF][2Nal][αMeL]E[Dab][3Pal]-NHMe; lactam 3-6, N-10), for which, in data set [1], half-maximal inhibition (IC50) required 0.015 nM and the Emax came to 95%. Besides, in data set [2], the fraction remaining at 4 h, 10 µM was 91%.
In the case of `CC(C)C[C@@H]1NC(=O)[C@H](Cc2c[nH]c3ccccc23)NC(=O)[C@H](Cc2c[nH]c3ccccc23)NC(=O)[C@@H]2CSCC(=O)CSC[C@H](NC(=O)[C@H]([C@@H](C)O)NC(=O)[C@@H](NC(=O)CN)CSCC(=O)CSC[C@@H](C(=O)N[C@@H](CO)C(N)=O)NC1=O)C(=O)N[C@@H](Cc1c[nH]c3ccccc13)C(=O)N[C@@H](CCC(=O)O)C(=O)N2` (single isomer, unassigned) [I1 (isomer 3), H-GC(1a)TC(2a)WEC(2a)WWLC(1a)S-[NH2], reference compound], in data set [2], the “SIF (% remaining 1 h)” value is reported as 0% and the “SIF (% remaining 4 h)” value is given as 0%.
Regarding `CNC(=O)[C@H](Cc1cccnc1)NC(=O)[C@H](CCN)NC(=O)[C@@H]1CCC(=O)NCc2ccc(cc2)CC(=O)N[C@@H](C)C(=O)N[C@H]2CCC(=O)NCC[C@H](NC(=O)[C@H](CCC(N)=O)NC(=O)[C@H](Cc3c[nH]c4ccccc34)NC2=O)C(=O)N[C@@H](Cc2ccc(OCCN)cc2)C(=O)N[C@@H](Cc2ccc3ccccc3c2)C(=O)N[C@@](C)(CC(C)C)C(=O)N1` [Compound 20, [4-Aminomethyl-phenylacetyl](1c)*AE(2c)WQ[Dab](2c)[Y(2-aminoethoxy)][2-Nal][2-Me-Leu]E(1c)[Dab][3-(3-Pyridyl)-Ala]-[NHMe]], in data set [1], the “% displacement (hIL-23R binding)” value is 97% and the half-maximal inhibitory concentration (IC50) was 0.012 nM. Further, in data set [2], the share remaining at 1 h, 10 µM is 109% and the amount remaining at 4 h, 10 µM is 90%.
`CSCC[C@H](NC(=O)[C@@H]1CSCC(=O)CSC[C@H](NC(=O)[C@@H](N)CCC(=O)O)C(=O)N[C@@H](Cc2c[nH]c3ccccc23)C(=O)N[C@@H](CC(C)C)C(=O)N[C@H]2CSCC(=O)CSC[C@H](NC(=O)[C@H](CC(N)=O)NC(=O)[C@H](CCCNC(=N)N)NC(=O)[C@H](Cc3ccc(O)cc3)NC(=O)[C@H](Cc3ccc(O)cc3)NC2=O)C(=O)N[C@@H](CC(N)=O)C(=O)N1)C(N)=O` (single isomer, unassigned) [I4 (isomer 3), H-EC(4a)WLC(5a)YYRNC(5a)NC(4a)M-[NH2], reference compound]: in data set [2], the “SIF (% remaining 1 h)” value was 0% and the “SIF (% remaining 4 h)” value is 0%.

Source of the values: patent EP4471049A1 (Zealand Pharma A/S, priority 2023, dated 2024).
